Laboratory results published in patent US6143492A, “Optical molecular sensors for cytochrome P450 activity” (Aurora Biosciences Corporation, priority 1999, dated 2000).

What was measured:
CYP 2D6 = CYP 2D6 (Homo sapiens, UniProt P10635); test: biochemical
Description: CYP 2D6 was incubated with 10 μM concentrations of various known inhibitors and drug substrates and residual CYP 2D6 activity assayed with the fluorogenic substrate MOBFC. The assay was performed in a 96-well plate at room temp and at a volume of 100 μl/well. 4×enzyme buffer was prepared and 25 μl was added to each well on the plate, for final assay concentrations of 3.3 mM glucose-6-phosphate, 0.4 units/ml glucose-6-phosphate dehydrogenase and 10 mM MgCl2 in 100 mM K+ phosphate, pH 8.0. […] Six consecutive 1:3 dilutions were made and 50 μl of each was added to appropriate wells on the assay plate. The CYP2D6 was diluted to a solution of 2 pmol/10 μl in 100 mM K+ phosphate and 10 μl was added to each well. 20 μl of buffer was added to each well containing standard. The drug inhibitors were allowed to pre-incubated with the CYP 2D6 enzyme for 1 hr prior to the addition of the MOBFC substrate. […] Hydroxy-trifluoro-methylcoumarin was diluted to 100 μM in K+ phosphate buffer, and seven consecutive 1:2 dilutions were made. 10 μl of each dilution was added to the appropriate wells on the plate containing 90 μl of 100 mM K+ phosphate, pH 8.0.

[1] = substrate: COc1ccc2c(C(F)(F)F)cc(=O)oc2c1; test: Kinetics of fluorogenic substrates with CYP 2D6; format: biochemical, human; settings: other: CYP 2D6

## CCC1C2CC3C4N(C)c5ccccc5C45CC(C2C5O)N3C1O (stereo not shown) [Amjaline]
CYP 2D6
  Ki: > 30 µM

## CC(C)NC[C@H](O)COc1cccc2ccccc12 (racemic) [Propanolol]
CYP 2D6; human, cyp 2d6, pH 8
  Ki: > 30 µM

B1: CYP 2D6 (Homo sapiens) (protein)
chain: MGLEALVPLAVIVAIFLLLVDLMHRRQRWAARYPPGPLPLPGLGNLLHVDFQNTPYCFDQLRRRFGDVFSLQLAWTPVVVLNGLAAVREALVTHGEDTADRPPVPITQILGFGPRSQGVFLARYGPAWREQRRFSVSTLRNLGLGKKSLEQWVTEEAACLCAAFANHSGRPFRPNGLLDKAVSNVIASLTCGRRFEYDDPRFLRLLDLAQEGLKEESGFLREVLNAVPVLLHIPALAGKVLRFQKAFLTQLDELLTEHRMTWDPAQPPRDLTEAFLAEMEKAKGNPESSFNDENLRIVVADLFSAGMVTTSTTLAWGLLLMILHPDVQRRVQQEIDDVIGQVRRPEMGDQAHMPYTTAVIHEVQRFGDIVPLGVTHMTSRDIEVQGFRIPKGTTLITNLSSVLKDEAVWEKPFRFHPEHFLDAQGHFVKPEAFLPFSAGRRACLGEPLARMELFLFFTSLLQHFSFSVPTGQPRPSHHGVFAFLVSPSPYELCAVPR
[1]
  Km: 10.0 µM
  kcat/Km: 417 M⁻¹ s⁻¹
